Assay results: patent US11952369B2 (Kadmon Corporation, LLC, priority 2022, dated 2024)
Several values for one entry are separate records, joined by “and”; a condition that tells them apart may be missing. Equal values may be shown once. Where a name gives a salt, the structure may show the parent alone. Marks after values point to notes of the source that are not given here. One block for each compound: values may come before it.

Columns and labels:
[1] = Solubility; type: physicochemical; details: water
[2] = target: T1, ROCK2 (Rattus norvegicus, UniProt Q62868); experiment: Inhibition of ROCK2 enzymatic activity, immunoabsorbed full length enzyme, S6 kinase substrate peptide, [γ33P]ATP; type: biochemical; details: for Ki: ROCK2
T1 construct: Full length rat ROCK1 and ROCK2 proteins were isolated from various tumor cell lines or tissues by immunoabsorption; endogenous in cells
Protocol: Full length rat ROCK1 and ROCK2 proteins were isolated from various tumor cell lines or tissues by immunoabsorption to 24-well microtiter plates pre-coated with antibodies specific for each isozyme. Reactions were initiated by the addition of S6 kinase substrate peptide, [γ33P]ATP, and study drug, and incubated at 37° C. for 20 minutes. Reactions were terminated by addition of phosphoric acid and the radioactivity was quantified using standard methods.

[3] = Phase 1 study part 1: absolute bioavailability, oral 200-mg tablet plus [14C]-belumosudil IV microtracer, plasma PK; type: in vivo, human; details: 100 μg IV; for half-life: iv
Protocol: (§1) This was a single-center, nonrandomized, open-label, 2-part study in 5 healthy male subjects aged 30 to 65 years. All oral doses were administered following an overnight fast and a standard breakfast on the day of dosing.
(timed to occur at the expected maximum concentration [Cmax]). To determine absolute bioavailability, a microtracer dose was chosen as it negates the need for an IV formulation with good stability. Additionally, due to use of a very low dose, further nonclinical studies such as local tolerance and general toxicology studies were not warranted.
Blood samples for IV [^14C]-belumosudil PK analysis and total radioactivity were collected at −0.25, −0.16, −0.08, 0, 0.08, 0.16, 0.25, 0.5, 0.75, 1, 1.5, 2, 3, 4, 5, 6, 8, 10, 12, 22, 34, and 46 hours after the end of infusion (EOI). All samples were processed to plasma within 30 minutes of collection by centrifugation at 2000 g for 10 minutes at 4° C., and
Total [^14C]-belumosudil concentrations were determined by accelerator mass spectrometry (AMS). […] Selected samples were diluted with commercial plasma to ensure that concentrations would fall within the acceptable range for AMS analysis. The samples were converted to graphite through combustion to CO2 followed by reduction to graphite. The graphite targets were then analyzed by AMS (LLOQ of 0.00489, 0.00557, 0.00485, 0.00402, and 0.00372 ng equiv/mL for individual subjects). All ^14C data was background-corrected based on predose [^14C]-belumosudil concentrations.
Eluate fractions corresponding to [^14C]-belumosudil were collected before AMS analysis (LLOQ of 1.55 pg equiv/mL).
(§2) PK parameter estimates were used to calculate absolute bioavailability and metabolite-to-parent ratio.

[4] = Phase 1 study part 2: plasma and whole-blood PK after oral 200 mg [14C]-belumosudil capsule; type: in vivo, human; details: for F, AUCinf (bioavailability) / F, Cmax (bioavailability): oral [14C]-belumosudil 200-mg capsule vs IV [14C]-belumosudil dose of part 1; for half-life: 200 mg
Protocol: as §1
(§3) For the mass balance and metabolic profiling study (part 2), following at least a 7-day washout from part 1, subjects received a single oral dose of a 200 mg [^14C]-belumosudil capsule containing NMT 9.8 MBq [^14C]. This level of radioactivity was selected based on human dosimetry calculations conducted by Public Health England that determined a radioactive oral dose of NMT 9.8 MBq would be necessary to permit adequate metabolite profiling of key samples. Taking the part 1 microtracer dose into account, the total committed effective dose subjects received in the study was 3 mSv, which falls within the International Commission on Radiological Protection Guidelines for Category IIb studies. Additionally, to remain within the limit for radioactive dose approved by the UK Administration of Radioactive Substances Advisory Committee, the target-specific activity of [^14C]-belumosudil was set to 90% of the threshold radioactive dosing limit.
Whole-blood samples for total radioactivity and plasma samples for metabolite pro-filing and identification were collected before dosing and 1, 4, 8, 12, 24, 48, 72, 96, 120, 144, and 168 hours after dosing. […] Whole-blood samples for total radioactivity were collected into tripotassium ethylene-diaminetetraacetic acid tubes and stored at 2 to 8° C. pending analysis. […] (metabolite profiling samples).
(§4) Total radioactivity whole-blood, plasma, and urine samples were prepared for LSC by mixing with scintillation fluid. In addition, aliquots of whole blood were solubilized with AquiGest tissue solubilization fluid and plasma samples were mixed with 10 mM of phosphate-buffered saline. Urine and fecal samples were pooled per subject by time interval before analysis. In addition, fecal samples were combusted using an automatic sample oxidizer prior to LSC. Radioactivity in all samples was measured using an LSC with automatic external standard quench correction (2300TR, 2900TR, and 3100TR Tri-Carb, Scintillation Counters; PerkinElmer, Waltham, Massachusetts), with samples counted for 4 minutes. The LLOQ was considered to be twice the background value for samples of the same type (1.39 [urine], 23.9 [feces], 35.5 [whole blood], and 30.9 [plasma] ng equivalents [free base]/g or mL).
as §2

[5] = Phase 1 study part 2: mass balance recovery of total radioactivity in excreta; type: in vivo, human; details: oral 200-mg [14C]-belumosudil capsule
Protocol: as §3
Urine for total radioactivity and metabolite profiling and identification was collected before dosing (the first void of the day) and pooled from 0 to 6, 6 to 12, and 12 to 24 hours after dosing followed by daily (24-hour) collections until day 8/discharge. Urine samples were pooled per interval and stored at 2 to 8° C. pending analysis. Feces were collected from admission until before dosing and then daily (24-hour) collections until discharge. Fecal samples were pooled per time interval and stored at −20° C. pending analysis.
as §4

[6] = system: patients with cGVHD; details: cited from earlier work
[7] = arithmetic mean (standard deviation), Part 1, [14C]-belumosudil
[8] = arithmetic mean (standard deviation), Part 1, total radioactivity
[9] = geometric mean (geometric CV %), Part 1, [14C]-belumosudil
[10] = geometric mean (geometric CV %), Part 1, total radioactivity
[11] = arithmetic mean (standard deviation), Part 2, [14C]-belumosudil 200-mg capsule
[12] = arithmetic mean (standard deviation), Part 2
[13] = arithmetic mean (standard deviation), Part 2, total radioactivity, 200-mg capsule
[14] = geometric mean (geometric CV %), Part 2, [14C]-belumosudil 200-mg capsule
[15] = geometric mean (geometric CV %), Part 2
[16] = geometric mean (geometric CV %), Part 2, total radioactivity, 200-mg capsule

T1 sequence (Q62868 whole entry): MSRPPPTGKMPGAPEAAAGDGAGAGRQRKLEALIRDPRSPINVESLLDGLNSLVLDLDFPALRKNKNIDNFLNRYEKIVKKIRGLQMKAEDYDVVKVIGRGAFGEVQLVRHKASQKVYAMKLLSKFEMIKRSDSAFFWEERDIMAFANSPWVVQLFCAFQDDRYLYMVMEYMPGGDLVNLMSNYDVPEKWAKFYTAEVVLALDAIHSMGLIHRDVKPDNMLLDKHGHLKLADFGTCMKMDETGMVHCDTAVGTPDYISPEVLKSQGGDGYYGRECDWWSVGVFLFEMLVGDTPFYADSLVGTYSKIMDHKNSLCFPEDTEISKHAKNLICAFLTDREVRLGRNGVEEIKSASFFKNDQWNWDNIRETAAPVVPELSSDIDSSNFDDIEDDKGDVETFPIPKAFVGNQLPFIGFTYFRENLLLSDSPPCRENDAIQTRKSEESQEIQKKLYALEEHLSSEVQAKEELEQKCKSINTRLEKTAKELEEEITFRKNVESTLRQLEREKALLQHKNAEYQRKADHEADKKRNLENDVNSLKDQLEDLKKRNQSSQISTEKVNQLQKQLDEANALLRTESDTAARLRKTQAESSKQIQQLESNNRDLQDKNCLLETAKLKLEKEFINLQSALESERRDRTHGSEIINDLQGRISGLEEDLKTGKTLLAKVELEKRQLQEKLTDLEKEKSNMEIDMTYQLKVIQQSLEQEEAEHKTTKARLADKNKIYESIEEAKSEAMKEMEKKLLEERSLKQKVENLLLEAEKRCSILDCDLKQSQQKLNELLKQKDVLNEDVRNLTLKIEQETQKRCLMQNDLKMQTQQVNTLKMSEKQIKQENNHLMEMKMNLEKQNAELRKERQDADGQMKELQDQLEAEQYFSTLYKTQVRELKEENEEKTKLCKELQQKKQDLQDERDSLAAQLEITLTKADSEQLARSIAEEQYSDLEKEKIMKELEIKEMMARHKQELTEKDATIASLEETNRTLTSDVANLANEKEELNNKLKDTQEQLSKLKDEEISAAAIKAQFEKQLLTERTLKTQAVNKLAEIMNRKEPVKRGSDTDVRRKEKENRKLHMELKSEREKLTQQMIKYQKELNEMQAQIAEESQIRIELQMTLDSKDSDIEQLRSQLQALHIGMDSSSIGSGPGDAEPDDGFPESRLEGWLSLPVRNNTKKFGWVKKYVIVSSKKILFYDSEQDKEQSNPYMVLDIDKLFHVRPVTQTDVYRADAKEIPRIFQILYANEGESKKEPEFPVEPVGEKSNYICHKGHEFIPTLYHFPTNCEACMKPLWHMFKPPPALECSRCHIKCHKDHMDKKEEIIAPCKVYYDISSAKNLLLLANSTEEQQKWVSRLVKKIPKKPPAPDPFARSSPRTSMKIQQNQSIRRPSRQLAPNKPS

Structure (SMILES): CC(C)NC(=O)COc1cccc(-c2nc(Nc3ccc4[nH]ncc4c3)c3ccccc3n2)c1 [Belumosudil mesylate, 2-{3-[4-(1H-indazol-5-ylamino)-2-quinazolinyl]phenoxy}-N-(propan-2-yl) acetamide methanesulfonate (1:1)]
solubility in water [1]: practically insoluble in water

Ki [2]: 338 ± 55 nM | inhibition of ROCK2 (Ki) relative to belumosudil ([2]; fold lower inhibition than belumosudil): approximately 6 fold
Structure (SMILES): O=C(O)COc1cccc(-c2nc(Nc3ccc4[nH]ncc4c3)c3ccccc3n2)c1 [KD025m2, 2-(3-(4-(1H-indazol-5-ylamino)quinazolin-2-yl)phenoxy)acetic acid]

Ki [2]: 45 ± 5 nM
Structure (SMILES): CC(N)C1CCC(C(=O)Nc2ccncc2)CC1 (centres unmarked) [Y-27362]

AUCextrap [3, 7]: 0.63 (0.46) % | AUCinf [3, 7]: 6720 (2220) ng or ng equiv × h/mL | AUClast [3, 7]: 6680 (2220) ng or ng equiv × h/mL | Clearanance [3, 7]: 264 (64.3) mL/min | Cmax [3, 7]: 4530 (830) ng or ng equiv/mL | Volume [3, 7]: 138 (59.8) L | Volume, ss [3, 7]: 54.1 (10.7) L | AUCextrap [3, 8]: 8.48 (2.84) % | Clearanance [3, 8]: 122 (29.0) mL/min | Volume [3, 8]: 194 (53.2) L | AUCextrap [3, 9]: 0.53 (66.3); % | AUCinf [3, 9]: 6480 (29.3); ng or ng equiv × h/mL | AUClast [3, 9]: 6440 (29.5); ng or ng equiv × h/mL | Cmax [3, 9]: 4480 (18.0); ng or ng equiv/mL | T1/2 (terminal half-life) [3, 9]: 5.86 (35.8); h | Volume [3, 9]: 130 (38.9); L | Volume, ss [3, 9]: 53.2 (20.6); L | AUCextrap [3, 10]: 8.09 (35.4); % | Clearanance [3, 10]: 120 (23.7); mL/min | Volume [3, 10]: 186 (35.4); L | Volume, ss [3, 10]: 98.2 (23.4) L | Tmax ([3]; male, human, plasma, 100 ug, median (min-max), Part 1 (n = 5), [14C]-belumosudil): 0.25 h | half-life ([3]; male, human, plasma, 100 ug, arithmetic mean (standard deviation), Part 1, [14C]-belumosudil, read-out: T1/2 (converted)): 6.15 h | half-life ([3]; male, human, plasma, 100 ug, geometric mean (geometric CV %), Part 1, [14C]-belumosudil, read-out: T1/2 (terminal half-life) (converted)): 5.9 h | AUCextrap [4, 11]: 3.08 (2.16) % | AUCinf [4, 11]: 8490 (2680) ng or ng equiv × h/mL | Clearanance (apparent clearance) [4, 11]: 435 (173) mL/min | F, AUCinf (bioavailability) [4, 12]: 63.8 (15.7)^b % | F, Cmax (bioavailability) [4, 12]: 63.8 (15.7)^b % | AUCextrap [4, 13]: 10.1 (2.79) % | Clearanance [4, 13]: 126 (59.7) mL/min | AUCextrap [4, 14]: 2.46 (92.9); % | AUCinf [4, 14]: 8100 (37.0); ng or ng equiv × h/mL | AUClast [4, 14]: 7850 (39.3); ng or ng equiv × h/mL | Clearanance (apparent clearance) [4, 14]: 412 (37.0); mL/min | Cmax [4, 14]: 1680 (32.1); ng or ng equiv/mL | F, AUCinf (bioavailability) [4, 15]: 62.2 (26.6)^b; % | F, Cmax (bioavailability) [4, 15]: 62.2 (26.6)^b; % | AUCextrap [4, 16]: 9.76 (31.7); % | Clearanance [4, 16]: 118 (46.1); mL/min | half-life ([4]; male, human, plasma, oral, arithmetic mean (standard deviation), Part 2, [14C]-belumosudil 200-mg capsule): 5.39 h | half-life ([4]; male, human, plasma, oral, geometric mean (geometric CV %), Part 2, [14C]-belumosudil 200-mg capsule): 5.11 h | Tmax ([4]; male, human, plasma, oral, median (min-max), Part 2 (n = 5), [14C]-belumosudil 200-mg capsule): 2 h | radioactivity recovered in excreta [5]: 88.5% | radiolabeled dose recovered in urine [5]: < 5% | total radioactivity recovered in feces [5]: 84.6% and 85% | total radioactivity recovered in feces within the first 24 hours after dosing [5]: ≈ 27.4% | total radioactivity recovered in urine within the first 24 hours after dosing [5]: 3.8%
Structure (SMILES): CC(C)NC(=O)COc1cccc(-[14c]2nc(Nc3ccc4[nH]ncc4c3)c3ccccc3n2)c1 [[^14C]-Belumosudil]

Structure (SMILES): C=CC(=O)N1CCC[C@@H](n2nc(-c3ccc(Oc4ccccc4)cc3)c3c(N)ncnc32)C1 [ibrutinib]
discontinuation rate because of treatment-emergent adverse events (TEAEs) [6]: 43%
